Results on two compounds are retold here after article PMC12298648, “An Evaluation of the Cytotoxicity and Safety Profile of Usnic Acid for a Broad Panel of Human Cancers and Normal Cells with Respect to Its Enantiospecificity” (Molecules, 2025).

≈ marks a conversion by molar mass, not a printed value. Like-named read-outs stand apart in the source and are kept apart here.

What is called IC50 is the midpoint of a concentration-inhibition curve.

One experiment has as its system 518A2. Details: method as in PMID 27936296. The following applies: 518A2, 72 h, cited from earlier work.
A further experiment relates to FemX. The arrangement: method as in PMID 23203090. The following applies: 72 h; cited from earlier work.
Experiment [1] deals with human non-cancerous skin cells. Details: method as in PMID 34500657. The settings on record: 24 h, reference drug; cited from earlier work.
Another experiment concerns HepG2 cells. Details: method as in PMID 40368021. The following applies: HepG2, 24 h, reference drug; cited from earlier work.
A further experiment deals with WM793 cells. The arrangement: method as in PMID 34577645. The settings on record: WM793, reference drug, time not given; cited from earlier work.
For another experiment, the system named is CCD 841 CoN. Description: MTT viability assay, normal colon epithelial cells. The settings on record: Homo sapiens, CCD-841CoN; normal colon epithelial cells, 24 h, reference drug; read-out: IC50. It counts as cell-based, human. An excerpt: (§1) Cell lines of different origins were used in the study and grouped as follows: prostate panel (human prostate carcinomas: DU145, derived from metastatic site: brain; grade IV PC3, derived from metastatic site: bone; LNCaP, derived from the metastatic site: lymph node; prostate epithelial, PNT2), colon panel (colorectal adenocarcinomas: HT29, originating from a primary tumor; Duke’s type C DLD-1, with the potential to lymph node metastasis; highly metastatic HCT116; colon epithelial cells CCD 841 CoN), thyroid panel (follicular thyroid carcinoma FTC133, anaplastic thyroid carcinoma 8505C, papillary thyroid carcinoma TPC-1, normal thyroid follicular epithelial Nthy-ori 3–1), breast panel (ER-positive breast adenocarcinoma MCF7, ER-negative breast adenocarcinoma MDA-MB-231, breast epithelial MCF10A), brain panel (neuroblastoma SH-SY5Y, glioblastoma U-87 MG, murine astrocytes C8D1A). All cell lines were purchased from Merck (Darmstadt, Germany).
(§2) Cells were grown under standard conditions (37 °C, 5% CO2) and culture media (DMEM/F12 for PNT2, PC3, FTC133, 8505 C, MDA-MB-231, TPC-1; DMEM Low Glucose for DU145; DMEM High Glucose for HCT116, DLD-1, SH-SY5Y, U87MG, C8D1A; MEM with NEAA for MCF7; MEM for CCD 841 CoN; McCoy’s for HT29; RPMI1640 with sodium pyruvate for LNCaP; DMEM/F12 with 20 ng/mL epidermal growth factor (EGF), 10 μg/mL insulin, 0.5 μg/mL hydrocortisone, 100 ng/mL cholera toxin) for MCF10A), supplemented with 10% fetal bovine serum (FBS) or 5% donor horse serum for MCF10A, and 1% antibiotics solution (10,000 U penicillin and 10 mg streptomycin/mL). The tested substances were prepared as 10 mg/mL stock solutions in DMSO and further diluted in the culture media to the working concentrations. Cells were treated with UA enantiomers at the concentration range of 0–50 µg/mL. The influence of DMSO on cell viability was also examined, with the final concentration […], and no toxic effect was noted.
(§3) The cells were seeded onto 96-well plates at a density of 1.5 × 10^4 cells/well. After 24 h UA enantiomers were added. Cell viability was determined after 24, 48, and 72 h by the MTT assay, as described previously. Doxorubicin was used as a reference cytostatic drug. All analyses were performed in triplicate; cell viability was expressed as % of control, untreated cells (mean ± SD), and IC50 values (concentration at which cell viability is inhibited by 50%), if possible.
(In general: Formazan colour is commonly taken as a measure of viable cells.)

Another experiment concerns C8D1A. In words: MTT viability assay, normal astrocytes C8D1A. The settings on record: Mus musculus, C8-D1A; murine astrocytes, 24 h, reference drug. Format: cell-based, murine.
Text: as §1, §2, §3

Another experiment has as its system PNT2. Description: MTT viability assay, normal prostate epithelial cells. Format: cell-based, human. The following applies: Homo sapiens, PNT2; normal prostate epithelial cells, reference drug, time not given; read-out: IC50.
Text: as §1, §2, §3

In the case of `CC(=O)c1c(O)c(C)c(O)c2c1OC1=CC(=O)C(C(C)=O)C(=O)C12C` (stereo not drawn) [UA, Usnic acid], the results for the IC50 entry in the experiment on 518A2 (recalculated from µM by the authors), with 518A2 (read-out: IC50) and in the experiment with FemX were “≈ 2 µg/mL”, 5.4 µM and 12.72 µg/mL (≈ 36.9 µM), respectively.
As to `COc1cccc2c1C(=O)c1c(O)c3c(c(O)c1C2=O)C[C@@](O)(C(=O)CO)C[C@@H]3O[C@H]1C[C@H](N)[C@H](O)[C@H](C)O1` [doxorubicin, reference compound], the IC50 in experiment [1] was 4.7 µg/mL (≈ 8.65 µM); in the experiment on WM793 cells it was greater than 100 µg/mL; with CCD 841 CoN, 2.25 µg/mL (≈ 4.14 µM); with C8D1A, 2.25 µg/mL (≈ 4.14 µM); in the experiment with PNT2 it was 1.4 µg/mL (≈ 2.58 µM). Moreover, in the experiment with HepG2 cells, the “IC50 (hepatotoxicity)” value is given as 1.03 µg/mL (≈ 1.9 µM).
